Test [1] relates to WERI retinoblastoma cells. The experiment in a line: Cell viability assay (resazurin/Alamar Blue), WERI. Particulars: single drug, read-out: Standalone IC50. The test is classed as cell-based, human. The method, then:
(§1) The human retinoblastoma Y79 (ATCC® HTB18™) and WERI (ATCC® HTB169™) cell lines were cultured in RPMI 1640 (ATCC®) medium supplemented with 20% (Y79) or 10% (WERI-RB) fetal bovine serum, 100 U/mL penicillin, and […] streptomycin in a humidified atmosphere of 5% CO2 at 37° C., grown in 75 cm^2 tissue culture flasks. Once confluent, cells were sub cultivated with fresh medium 1:2 to 1:4 ratios after discarding the supernatant and obtaining the gravity-settled aggregates.
(§2) 10 mL of cell suspension were centrifuged at 1000 G for 10 minutes. The supernatant was discarded and the pellet was then resuspended in media to 1.1*10^5 live cells/mL following a viability cell count check. Cells were plated in 96-well plates at 10,000 cells per well. Sample wells were treated with carboplatin, etoposide or vincristine at the concentrations of 1000 uM, 100 uM, 50 uM, 10 uM, 5 uM, 1 uM, 0.5 uM, and 0.1 uM. Untreated and non-cell controls include a 10 uL vehicle, bringing up all wells to 100 uL total volume. Experiments covered 24/48/72 hour incubations at 5% CO2 at 37° C. prior to analyses. Plates ready for analysis were incubated with 10 uL of 10× Alamar Blue Reagent for 1-4 hours (apparent color change) and emission intensity read at 585 nm following a 555 nm excitation.
(§3) Y79 and WERI cells were incubated with Vincristine, Etoposide, or Carboplatin using previously established half-maximal inhibitory concentrations in a fixed-ratio treatment paradigm. Y79 and WERI cells also were incubated with a mixture of Vincristine, Etoposide, or Carboplatin.

Test [2] deals with Y79 retinoblastoma cells. The experiment in a line: Cell viability assay (resazurin/Alamar Blue), Y79. It counts as cell-based, human. The settings on record: single drug, read-out: Standalone IC50. On the procedure:
as §1, §2, §3
(In general: Resazurin is reduced to fluorescent resorufin, in cell work by metabolically active cells.)

Test [3] has as its target T1, TISSEEL fibrin sealant (Homo sapiens, UniProt P02671+P02675+P02679).
T1 construct: purchased
T1 sequence (P02671 20-644 isoform P02671-2 limits assumed): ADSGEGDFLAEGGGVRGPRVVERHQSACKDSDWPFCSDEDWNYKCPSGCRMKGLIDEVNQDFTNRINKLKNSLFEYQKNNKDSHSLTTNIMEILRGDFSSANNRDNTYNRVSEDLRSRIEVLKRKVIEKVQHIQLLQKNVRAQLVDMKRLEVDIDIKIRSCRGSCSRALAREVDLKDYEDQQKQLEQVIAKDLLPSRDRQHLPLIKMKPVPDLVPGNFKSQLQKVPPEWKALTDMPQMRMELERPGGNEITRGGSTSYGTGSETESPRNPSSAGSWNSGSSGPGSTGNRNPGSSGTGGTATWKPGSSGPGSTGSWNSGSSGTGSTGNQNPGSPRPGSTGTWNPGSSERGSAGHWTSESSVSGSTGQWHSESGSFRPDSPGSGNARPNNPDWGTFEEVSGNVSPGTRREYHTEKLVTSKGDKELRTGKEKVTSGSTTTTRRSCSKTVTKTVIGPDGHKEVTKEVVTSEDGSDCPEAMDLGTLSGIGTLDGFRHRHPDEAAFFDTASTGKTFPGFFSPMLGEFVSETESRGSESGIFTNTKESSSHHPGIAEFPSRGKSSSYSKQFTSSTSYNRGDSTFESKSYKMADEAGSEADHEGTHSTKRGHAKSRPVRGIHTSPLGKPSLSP
T1 sequence (P02675 45-491 limits assumed): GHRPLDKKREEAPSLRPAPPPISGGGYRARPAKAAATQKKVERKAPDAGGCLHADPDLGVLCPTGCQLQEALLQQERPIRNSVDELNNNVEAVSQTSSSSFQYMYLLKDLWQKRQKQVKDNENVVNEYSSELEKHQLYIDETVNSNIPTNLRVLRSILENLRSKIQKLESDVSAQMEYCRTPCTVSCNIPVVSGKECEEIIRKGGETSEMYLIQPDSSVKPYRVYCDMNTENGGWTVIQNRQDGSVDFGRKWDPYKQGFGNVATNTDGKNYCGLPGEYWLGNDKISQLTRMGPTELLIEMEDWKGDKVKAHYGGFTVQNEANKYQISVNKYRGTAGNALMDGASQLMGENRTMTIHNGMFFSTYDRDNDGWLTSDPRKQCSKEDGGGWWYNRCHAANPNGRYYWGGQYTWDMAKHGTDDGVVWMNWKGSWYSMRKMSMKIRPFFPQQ
T1 sequence (P02679 27-437 isoform P02679-2 limits assumed): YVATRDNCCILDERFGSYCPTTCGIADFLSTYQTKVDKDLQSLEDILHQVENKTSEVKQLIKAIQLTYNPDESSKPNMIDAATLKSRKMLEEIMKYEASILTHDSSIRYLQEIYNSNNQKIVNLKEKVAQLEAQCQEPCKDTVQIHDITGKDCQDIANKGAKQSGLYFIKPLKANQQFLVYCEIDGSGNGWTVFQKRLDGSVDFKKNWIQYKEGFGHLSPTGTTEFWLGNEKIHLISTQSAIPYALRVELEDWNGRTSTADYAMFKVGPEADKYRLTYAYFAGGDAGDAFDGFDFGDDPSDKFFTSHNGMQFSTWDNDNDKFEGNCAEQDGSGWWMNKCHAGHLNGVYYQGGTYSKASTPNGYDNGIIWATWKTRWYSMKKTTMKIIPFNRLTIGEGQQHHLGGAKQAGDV
The experiment in a line: Scanning electron microscopy branching analysis of drug-embedded fibrin sealant. The settings on record: fibrin sealant admixed with 1 mM drug, SEM 5,000x, ImageJ skeleton analysis. On the procedure:
FIGS. 8A to 8D depict fiber analysis of VEC-embedded fibrin sealant. Commercially available fibrin sealant was admixed with 1 mM additions of Vincristine, Etoposide, or Carboplatin. Samples were critically point dried and imaged by scanning electron microscopy at 5,000× magnification at various points around the samples. Images were uploaded into ImageJ for fiber analysis. […] In FIG. 8B, the images were binarized to 8-bit grayscale. In FIG. 8C, the binarized image was skeletonized to produce a representation of the fiber network. The Analyze Skeleton function was used to quantify fiber branches and junctions. […] Images analysed were taken at 5,000× magnificent and compared over a 800×800 pixel area. TISSEEL™ or TISSEEL™ admixed with chemotherapeutic drug (1 mM final concentration) was prepared according to the IFU. In short, 2 mM additions of chemotherapy were transferred via syringe and needle to the thrombin vial (500 IU/mL thrombin) during preparation and placed in a Fibrinotherm to spin and heat the mixtures to 37 degrees celsius. Following complete dissolution of both thrombin and fibrinogen solutions, each solution was pulled up into respective syringes and loaded in the Duploject spray system accompanying the kit. The 1 mL volumes of thrombin and fibrinogen (2 mL total) were sprayed onto collagen casing. Immediately following coagulation (˜30 seconds), the samples were washed 3× in cacodylate buffer for 10 minutes and fixed in 2% glutaraldehyde buffer (Electron Microscopy Sciences). Fixed clots were washed, serially dehydrated with ethanol, and dried with hexamethyldisilizane (Electron Microscopy Sciences). Clots were allowed to air dry overnight thereafter. Clots were then teased apart with forceps and mounted on aluminum sample supports with carbon adhesive tape. Samples were sputter coated with 20 nm iridium metal in a Leica ACE600 and analyzed by scanning electron microscopy (FEI Quanta 650 FEG). Branching analysis was performed using 2D images cross-sectional cuts of fibrin clots. Representative images and sections displaying easily discernible fibrin branching characteristics were selected from each group. Images were processed using ImageJ's skeleton analysis function. In short, images were first binarized to delineate the image further into branch and background sections. Binary images were then placed through the Analyze Skeleton (2D/3D) function with no pruning or selected parameters. The output file included details such as branch lengths, branch numbers, and number of junctions.

Like-named read-outs stand apart in the source and are kept apart here.

As a reminder, the IC50 is the concentration needed to halve the response being measured. On to `CC[C@]1(O)C[C@H]2CN(CCc3c([nH]c4ccccc34)[C@@](C(=O)OC)(c3cc4c(cc3OC)N(C=O)[C@H]3[C@@](O)(C(=O)OC)[C@H](OC(C)=O)[C@]5(CC)C=CCN6CC[C@]43[C@@H]65)C2)C1` [Vincristine], for which the IC50 in test [1] (Homo sapiens) is 2900 nM. Also, the IC50 in test [2] (Homo sapiens) came to 100 nM. For the same molecule, in test [3], the “Avg Branch length” value turned out to be 22 nm, the “Branch/Junction Ratio” value was found to be 55.7, the Junctions is 136 +/− 2.3 and the “Max Branch Number” value is listed as 7580 +/− 125.

On to `N.N.O=C([O-])C1(C(=O)[O-])CCC1.[Pt+2]` [Carboplatin], for which the IC50 in test [1] turned out to be 1000 nM. Further, the IC50 in test [2] is 1100 nM. For the same molecule, in test [3], the “Avg Branch length” value came to 19 nm, the “Branch/Junction Ratio” value turned out to be 68.0, the Junctions is 148 +/− 2.6 and the “Max Branch Number” value is recorded as 10065 +/− 142.

As to `COc1cc([C@@H]2c3cc4c(cc3[C@@H](O[C@@H]3O[C@@H]5CO[C@@H](C)O[C@H]5[C@H](O)[C@H]3O)[C@H]3COC(=O)[C@H]23)OCO4)cc(OC)c1O` [Etoposide], the IC50 in test [1] (Homo sapiens) amounted to 2700 nM. Further, the IC50 in test [2] (Homo sapiens) is 6000 nM. For the same molecule, in test [3], the “Avg Branch length” value came out at 21 nm, the “Branch/Junction Ratio” value is 66.2, the Junctions is on record as 125 +/− 2.1 and the “Max Branch Number” value is recorded as 8272 +/− 140.

The record behind these values is patent US20220088155A1, “SUBCONJUNCTIVAL CHEMOTHERAPEUTIC DELIVERY BY FIBRIN SEALANT IN THE TREATMENT OF RETINOBLASTOMA” (BAXTER INTERNATIONALINC., priority 2019, published 2022).
